The source of these data is publication PMC11960843, “Exploration of the tunability of BRD4 degradation by DCAF16 trans-labelling covalent glues” (European journal of medicinal chemistry, 2024).

Where two headings read alike, the source gives them in different places. Where only a bound is given, the exact number is not on record here.

Data set [1] concerns the target BRD4BD1 (Homo sapiens, UniProt O60885). As to the kind of experiment: BRD4 AlphaScreen competition assay (JQ1-biotin displacement), BRD4BD1. In kind it is binding. For orientation: Bead proximity is the source of the signal in Alpha formats.
In data set [2] the target is T1, BRD4BD2 (Homo sapiens, UniProt O60885). The data set can be described thus: BRD4 AlphaScreen competition assay (JQ1-biotin displacement), BRD4BD2. In kind it is binding.
Data set [3] addresses T2, BRD4BD2-DCAF16 ternary complex (Homo sapiens, UniProt O60885+Q9NXF7).
T2 construct: E3 ligase to bromodomain 2 (BRD4BD2); His6 (N); StrepII (N); Avi (N); made in house; host or cells: BRD4BD2: E. coli (pET100/D-TOPO)
The data set can be described thus: DDB1-DCAF16-BRD4BD2 TR-FRET ternary complex formation assay. Type of data set: biochemical. The settings on record: for TR-FRETmax (520 nm/490 nm ratio): 6 h degrader incubation; for BRD4BD2-DCAF16 ternary complex formation / DCAF16 recruitment (in words): time-dependent TR-FRET; for incubation time of saturation / maximum TR-FRET signal: measured at 1, 2, 4, 6 and 24 h. An excerpt: To determine the relationship between covalent warheads and DCAF16 recruitment to BRD4BD2, we used a time-resolved fluorescence energy transfer (TR-FRET) assay to measure induced BRD4BD2-DCAF16 ternary complex formation (Fig. 3A).
Furthermore, we wanted to determine the kinetics of the BRD4BD2-DCAF16 interaction given its covalent nature. […] Additionally, to understand the relationship between ternary complex formation kinetics and warhead reactivity we measured the depletion of the covalent analogs in the presence of glutathione using MS (Table S2). […] Titrations of compounds to induce the DCAF16-BRD4BD complex were carried out by mixing 100 nM biotinylated BRD4BD2, 500 nM BODIPY-FL labeled DDB1ΔB-DCAF16 variants, and 2 nM terbium-coupled streptavidin (Invitrogen) in an assay buffer containing 50 mM HEPES pH 8.0, 200 mM NaCl, 0.1% Pluronic F-68 solution (Sigma), 0.5% bovine serum albumin (BSA) (w/v) and 1 mM TCEP. […] The TR-FRET signal of each data point was extracted by calculating the 520/490 nm ratio.
In general terms: In TR-FRET formats the signal depends on donor and acceptor labels being close together.

Data set [4] concerns glutathione. As to the kind of experiment: GSH stability (glutathione reactivity) assay by LC-MS/MS. In kind it is physicochemical. The settings on record: PBS containing 5 mM reduced glutathione; PBS + 5 mM GSH; extrapolated from 240 min assay. An excerpt: Furthermore, we wanted to determine the kinetics of the BRD4BD2-DCAF16 interaction given its covalent nature. […] Additionally, to understand the relationship between ternary complex formation kinetics and warhead reactivity we measured the depletion of the covalent analogs in the presence of glutathione using MS (Table S2). […].

Data set [5] concerns the target T1, BRD4BD2. The data set can be described thus: BRD4BD2-eGFP and mCherry flow reporter degradation assay, wild type K562 cells. The settings on record: for DCAF16 dependent BRD4BD2 degradation (in words) / DC50: K562 cells, 16 h incubation; for Dmax: K562, read-out: maximal degradation (Dmax/16h) of BRD4BD2, K562 cells, 16 h incubation; for DC50: read-out: DC50 of BRD4BD2 degradation.
Description: This assay involves the co-expression of mCherry with BRD4BD1/2 fused to an enhanced green fluorescent protein (eGFP) tag, and the subsequent fluorescence measurement of BRD4BD1/2-eGFP normalized to mCherry as a readout for BRD4BD1/2 degradation. It allows for a quantitative, rapid, and facile screening of several MGDs, in a dose-and time-dependent manner. […] Thus, the BRD4BD2 stability system was used to test all subsequent GNE011 analogs in wild type and DCAF16−/− cells.
One day after infection, reporter cells were selected with puromycin at a concentration of 2 μg/mL.
K562 cells stably expressing degradation reporter were dosed with DMSO or degraders at various times and concentrations using D300e Digital Dispenser (HP). The fluorescent signal was quantified by flow cytometry (LSRFortessa flow cytometer, BD Biosciences) and analyzed using FlowJo (flow cytometry analysis software, BD Biosciences). The geometric mean of the eGFP and mCherry fluorescent signal for round and mCherry-positive cells was calculated. GFP expression was normalized to mCherry signal and drug treatments were compared to DMSO controls.

Data set [6] deals with T3, BRD4 (Homo sapiens, UniProt O60885). The data set can be described thus: Washout experiment, Western blot of BRD4 degradation in K562 cells. Type of data set: cell-based. On the set-up: an 11 amino acid peptide knock-in tag to a protein-of-interest using CRISPR insertion; endogenous in cells. The following applies: K562, 1 μM; for BRD4 degradation after washout compared to no washout (in words): 4 h treatment, 20 h compound-free vs 24 h no washout. As for the experimental part:
This experiment involves cell treatment and incubation with a ‘covalent’ compound, followed by a wash-step where the cells are washed and resuspended in compound-free cell media.
Cells were washed with PBS and lysed in RIPA lysis buffer (Thermo Fisher Scientific) with Halt Protease Inhibitor Cocktail (Thermo Fisher Scientific) and Benzonase (Sigma-Aldrich) for 20 min on ice. […] Membranes were blocked in Intercept (PBS) Blocking Buffer (LI-COR Biosciences) and incubated with primary antibodies overnight at 4 °C. The membranes were then washed in Tris-buffered saline with Tween-20 (TBS-T), incubated for 1 h with secondary IRDye-conjugated antibodies (LI-COR Biosciences) and washed three times in TBS-T for 5 min before near-infrared western blot detection on an Odyssey Imaging System (LI-COR Biosciences).
(In general: A western blot detects proteins with antibodies after separation by electrophoresis.)

Data set [7] concerns the target T3, BRD4. As to the kind of experiment: Western blot of BRD4 degradation, wild-type K562 cells. In kind it is cell-based. On the set-up: an 11 amino acid peptide knock-in tag to a protein-of-interest using CRISPR insertion; endogenous in cells. The settings on record: wild-type K562, 1 μM, 16 h. As for the experimental part: (§1) Western blotting was used to determine the degradation potencies of the covalent BRD4 degraders.
(§2) Cells were washed with PBS and lysed in RIPA lysis buffer (Thermo Fisher Scientific) with Halt Protease Inhibitor Cocktail (Thermo Fisher Scientific) and Benzonase (Sigma-Aldrich) for 20 min on ice. The insoluble fraction was removed by centrifugation, the protein concentration was quantified using a BCA protein assay kit (Thermo Fisher Scientific), and an equal amount of lysate was run on SDS–PAGE 4–12% Bis–Tris Protein Gels (Thermo Fisher Scientific) and then transferred to nitrocellulose membrane with a XCell II Blot Module Wet Tank Transfer System (Thermo Fisher Scientific). Membranes were blocked in Intercept (PBS) Blocking Buffer (LI-COR Biosciences) and incubated with primary antibodies overnight at 4 °C. The membranes were then washed in Tris-buffered saline with Tween-20 (TBS-T), incubated for 1 h with secondary IRDye-conjugated antibodies (LI-COR Biosciences) and washed three times in TBS-T for 5 min before near-infrared western blot detection on an Odyssey Imaging System (LI-COR Biosciences).

For data set [8], the target named is T3, BRD4. The data set can be described thus: Western blot of BRD4 degradation, DCAF16 KO K562 cells. Type of data set: cell-based. On the set-up: an 11 amino acid peptide knock-in tag to a protein-of-interest using CRISPR insertion; endogenous in cells. The following applies: DCAF16 KO K562, 1 μM, 16 h. On the procedure:
as §1, §2

Data set [9] deals with T3, BRD4. As to the kind of experiment: BRD4-HiBiT assay, WT JURKAT cells. Type of data set: cell-based. On the set-up: an 11 amino acid peptide knock-in tag to a protein-of-interest using CRISPR insertion; endogenous in cells; host or cells: JURKAT, HiBiT-edited (wild type or DCAF16 knockout). The following applies: 6 h. As for the experimental part: (§3) Thereafter, we sought to characterize the BRD4 cellular degradation potencies in a dose-dependent manner at a shorter time point to minimize secondary effects. This was performed using the bioluminescent HiBiT-BRD4 assay, which consists of an 11 amino acid peptide knock-in tag to a protein-of-interest using CRISPR insertion. A complementary polypeptide (LgBiT) detects and interacts with all HiBiT tagged proteins, thereby reconstituting a luminescent NanoBiT enzyme, that can be quantified by its bioluminescence. WT and DCAF16 KO JURKAT cell lines expressing the BRD4-HiBiT system were generated to quantify dose-dependent BRD4 degradation after 6 h incubation (Fig. 4C).
(§4) After 6 h, the plates were subjected to Nano-Glo HiBiT Lytic detection system (Promega, #N3040) as described in manufacturer's manual. The assays were performed in biological triplicate. DC50 values were determined using a non-linear regression curve fit in GraphPad PRISM 9.5.1.

In data set [10] the target is T3, BRD4. As to the kind of experiment: BRD4-HiBiT assay, DCAF16 KO JURKAT cells. The following applies: 6 h. Type of data set: cell-based. Also noted: an 11 amino acid peptide knock-in tag to a protein-of-interest using CRISPR insertion; endogenous in cells; host or cells: JURKAT, HiBiT-edited (wild type or DCAF16 knockout). On the procedure: as §3, §4

T2 sequence (Q9NXF7 whole entry, other chains not shown): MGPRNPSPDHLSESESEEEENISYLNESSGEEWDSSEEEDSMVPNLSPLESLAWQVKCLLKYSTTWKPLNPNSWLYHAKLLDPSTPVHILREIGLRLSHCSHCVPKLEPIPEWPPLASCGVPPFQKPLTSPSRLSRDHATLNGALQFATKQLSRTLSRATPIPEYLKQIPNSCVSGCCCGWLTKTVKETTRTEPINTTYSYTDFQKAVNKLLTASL

The IC50 is the point on the concentration scale where inhibition reaches its midpoint. For `Cc1sc2c(c1C)C(c1ccc(N)cc1)=N[C@@H](CC(=O)OC(C)(C)C)c1nnc(C)n1-2` [MMH248, tert-butyl (S)-2-(4-(4-aminophenyl)-2,3,9-trimethyl-6H-thieno[3,2-f][1,2,4]triazolo[4,3-a][1,4]diazepin-6-yl)acetate], the 50% inhibitory concentration (IC50) in data set [1] is 12.5 nM; in data set [2] it was 4.29 nM.

On to `Cc1sc2c(c1C)C(c1ccc(I)cc1)=N[C@@H](CC(=O)OC(C)(C)C)c1nnc(C)n1-2` [MMH263, tert-butyl (S)-2-(4-(4-iodophenyl)-2,3,9-trimethyl-6H-thieno[3,2-f][1,2,4]triazolo[4,3-a][1,4]diazepin-6-yl)acetate], for which the figures for the IC50 in [1] and in data set [2] were 11.7 nM and 4.96 nM, respectively.

For orientation: half-life means the time needed for the level to fall by half in the phase considered. On to `COC(=O)/C=C/c1ccc(C2=N[C@@H](CC(=O)OC(C)(C)C)c3nnc(C)n3-c3sc(C)c(C)c32)cc1` [MMH269, methyl (S,E)-3-(4-(6-(2-(tert-butoxy)-2-oxoethyl)-2,3,9-trimethyl-6H-thieno[3,2-f][1,2,4]triazolo[4,3-a][1,4]diazepin-4-yl)phenyl)acrylate], for which the IC50 in [1] (read-out: IC50 BRD4BD1) amounted to 10.5 nM. Further, the IC50 in data set [2] (read-out: IC50 BRD4BD2) came to 5.07 nM. Besides, in data set [3], the “TR-FRETmax (520 nm/490 nm ratio)” value was 0.18 and the “BRD4BD2-DCAF16 ternary complex formation / DCAF16 recruitment (in words)” value is recorded as “no significant DCAF16 recruitment”. Further, in data set [4], the half-life was > 12.5 h. Further, the “DCAF16 dependent BRD4BD2 degradation (in words)” value in data set [5] is on record as “almost no DCAF16 dependent BRD4BD2 degradation”. Moreover, the “BRD4 degradation without washout (in words)” value in data set [6] (24 h no washout) is recorded as “showed BRD4 degradation in 24 h no washout experiments”.

As a reminder, the DC50 is the midpoint of the concentration-degradation curve. Consider `Cc1sc2c(c1C)C(c1ccc(/C=C/C=O)cc1)=N[C@@H](CC(=O)OC(C)(C)C)c1nnc(C)n1-2` [TMX1, tert-butyl (S,E)-2-(2,3,9-trimethyl-4-(4-(3-oxoprop-1-en-1-yl)phenyl)-6H-thieno[3,2-f][1,2,4]triazolo[4,3-a][1,4]diazepin-6-yl)acetate], for which, in data set [1] (read-out: IC50 BRD4BD1), the IC50 came to 8.78 nM. Moreover, in data set [2] (read-out: IC50 BRD4BD2), the IC50 worked out at 33.9 nM. Further, in data set [3], the “TR-FRETmax (520 nm/490 nm ratio)” value was determined as 1.34 and the “incubation time of saturation / maximum TR-FRET signal” value amounted to 1 h. Also, the half-life in [4] is 6.92 h. Also, in [5], the Dmax turned out to be 75% and the DC50 is 64 nM. In data set [7], the “BRD4 degradation by Western blot (in words)” value was “nearly complete BRD4 degradation”. For the same molecule, the “BRD4 degradation by Western blot in DCAF16 KO (in words)” value in [8] is on record as “completely rescued by DCAF16 KO”. Also, in [6], the “BRD4 degradation after washout compared to no washout (in words)” value is “no or minimal difference”. Further, in [9], the BRD4 degradation was < 60% and the “BRD4 degradation (in words)” value was “noticeable BRD4 degradation”. The “BRD4 degradation in DCAF16 KO (in words)” value in data set [10] is given as “completely rescued by DCAF16 KO”.

On to `Cc1sc2c(c1C)C(c1ccc(C#CCO)cc1)=N[C@@H](CC(=O)OC(C)(C)C)c1nnc(C)n1-2` [TMX458, tert-butyl (S)-2-(4-(4-(3-hydroxyprop-1-yn-1-yl)phenyl)-2,3,9-trimethyl-6H-thieno[3,2-f][1,2,4]triazolo[4,3-a][1,4]diazepin-6-yl)acetate], for which the half-inhibitory concentration (IC50) in data set [1] (read-out: IC50 BRD4BD1) was determined as 10.1 nM. Also, the IC50 in data set [2] (read-out: IC50 BRD4BD2) worked out at 3.92 nM. Besides, in data set [3], the “TR-FRETmax (520 nm/490 nm ratio)” value is on record as 0.16 and the “BRD4BD2-DCAF16 ternary complex formation / DCAF16 recruitment (in words)” value was “no significant DCAF16 recruitment”. In data set [5], the Dmax stood at 10%, the “DCAF16 dependent BRD4BD2 degradation (in words)” value was “completely inactive” and the DC50 is > 10000 nM.

For the molecule `Cc1sc2c(c1C)C(c1ccc(C#CC=O)cc1)=N[C@@H](CC(=O)OC(C)(C)C)c1nnc(C)n1-2` [TMX4128, tert-butyl (S)-2-(2,3,9-trimethyl-4-(4-(3-oxoprop-1-yn-1-yl)phenyl)-6H-thieno[3,2-f][1,2,4]triazolo[4,3-a][1,4]diazepin-6-yl)acetate], the IC50 in data set [1] (read-out: IC50 BRD4BD1) was found to be 2.2 nM. Moreover, in data set [2] (read-out: IC50 BRD4BD2), the IC50 was 21.7 nM. In data set [3], the “TR-FRETmax (520 nm/490 nm ratio)” value is 0.65, the “incubation time of saturation / maximum TR-FRET signal” value was 1 h and the “BRD4BD2-DCAF16 ternary complex formation / DCAF16 recruitment (in words)” value was “disintegration of the ternary complex overtime”. The half-life in [4] is 8.83 h. Moreover, in [5], the Dmax came to 69% and the DC50 worked out at 703 nM. For the same molecule, the “BRD4 degradation by Western blot (in words)” value in [7] is “nearly complete BRD4 degradation”. In addition, the “BRD4 degradation by Western blot in DCAF16 KO (in words)” value in data set [8] was “completely rescued by DCAF16 KO”. Moreover, the “BRD4 degradation after washout compared to no washout (in words)” value in data set [6] is on record as “no or minimal difference”. In data set [9], the BRD4 degradation was < 60% and the “BRD4 degradation (in words)” value is “noticeable BRD4 degradation”. For the same molecule, the BRD4 degradation in data set [9] (at 10 μM) is reported as ~ 73%. The “BRD4 degradation in DCAF16 KO (in words)” value in data set [10] is “completely rescued by DCAF16 KO”.
